Measurements: US5972939A, “Cyclopentene derivatives useful as antagonists of the motilin receptor” (Ortho-McNeil Pharmaceutical, Inc., priority 1998, dated 1999)

biological target: T1, motilin receptors located on the colon of mature rabbits (Oryctolagus cuniculus, UniProt G1T803); test: competition with radiolabeled (125I) porcine motilin for the motilin receptors of rabbit colon; assay type: binding; conditions: @ 0.1 μM
T1 construct: The colon from mature New Zealand rabbits was removed, dissected free from the mucosa and serosa layers, and diced into small pieces; from tissue; host or cells: colon smooth muscle of mature New Zealand rabbits, crude membrane homogenate
Protocol: The compounds of the invention were tested for their ability to compete with radiolabeled motilin (porcine) for the motilin receptors located on the colon of mature rabbits. The colon from mature New Zealand rabbits was removed, dissected free from the mucosa and serosa layers, and diced into small pieces. […] The homogenate was centrifuged at 1000×g for 15 min. and the supernatant discarded. The pellet was washed twice before being suspended in homogenizing buffer. This crude homogenate is then passed first through a 19 gauge needle then a 23 gauge needle to further suspend the material and stored as -80° C. […] After 30 min, at 30° C., the material was cooled on ice and centrifuged at 13,000×g for 1 minute. The pellet was washed with 1 mL 0.9% saline and centrifuged at 13,000×g for 15 seconds. The pellet was washed again with cold saline and the supernatant was removed. The pellet was counted in the gamma counter to determine the percentage of […] motilin and thereby the percent inhibition of the test compound. IC50s were determined for some compounds by standard techniques.

T1 sequence (G1T803 1-400): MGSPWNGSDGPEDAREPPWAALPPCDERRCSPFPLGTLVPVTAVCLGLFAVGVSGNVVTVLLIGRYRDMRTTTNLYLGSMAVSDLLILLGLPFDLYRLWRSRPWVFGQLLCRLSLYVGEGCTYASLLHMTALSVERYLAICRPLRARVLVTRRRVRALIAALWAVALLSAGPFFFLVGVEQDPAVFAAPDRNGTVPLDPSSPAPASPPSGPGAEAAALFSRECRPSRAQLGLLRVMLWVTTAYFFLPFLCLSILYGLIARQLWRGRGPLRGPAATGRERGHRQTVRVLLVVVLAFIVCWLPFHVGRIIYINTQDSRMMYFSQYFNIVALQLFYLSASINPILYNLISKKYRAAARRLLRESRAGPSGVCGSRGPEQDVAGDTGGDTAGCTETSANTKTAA

inhibition at 0.1 µM	Structure (SMILES)
45%	O=C(NC1(Cc2ccccc2)C=C(CN(C(=S)Nc2ccccc2)c2cccc(OCCN3CCOCC3)c2)CC1)C(Cl)(Cl)Cl (stereo not shown) [Compound 11]
54%	O=C(c1cccc(Br)c1)N(CC1=CC(Cc2ccccc2)(NC(=O)C(Cl)(Cl)Cl)CC1)c1cccc(OCCN2CCOCC2)c1 (stereo not shown) [Compound 101]

same assay, conditions: @ 0.5 μM

inhibition at 0.5 µM	Structure (SMILES)
65%	COc1cccc(C(=O)N(CC2=CC(Cc3ccccc3)(NC(=O)C(Cl)(Cl)Cl)CC2)c2cccc(OCCN3CCOCC3)c2)c1 (stereo not shown) [Compound 90]

same assay, conditions: @ 1.0 μM

Structure (SMILES)	inhibition at 1 µM
CC(=O)NC1(Cc2ccccc2)C=C(CN(C(=O)Nc2ccccc2)c2cccc(OCCN3CCOCC3)c2)CC1 (stereo not shown) [Compound 15, 3-Benzyl-3-acetylamino-1-(N-phenylaminocarbonyl)-N-[(3-(2-morpholinoethoxy)phenyl)amino]methylcyclopentene]	40%
O=C(Nc1ccccc1)N(CC1=CC(Cc2ccccc2)(NC(=O)C(Cl)(Cl)Cl)CC1)c1cccc(CCCN2CCOCC2)c1 (stereo not shown) [Compound 19]	59%
O=C(c1ccc(F)cc1)N(CC1=CC(Cc2ccccc2)(NC(=O)C(Cl)(Cl)Cl)CC1)c1cccc(CCCN2CCOCC2)c1 (stereo not shown) [Compound 98]	17%

The remaining lines, values ahead:

inhibition at 1 µM	Structure (SMILES)
59%	O=C(c1ccc(Br)cc1)N(CC1=CC(Cc2ccccc2)(NC(=O)C(Cl)(Cl)Cl)CC1)c1cc(OCCN2CCOCC2)ccc1Cl (stereo not shown) [Compound 38]
62%	CN(C)c1ccc(C(=O)N(CCc2cccc(OCCN3CCOCC3)c2)CC2=CC(Cc3ccccc3)(NC(=O)C(Cl)(Cl)Cl)CC2)cc1 (stereo not shown) [Compound 96]
28%	O=C(c1cc(C(F)(F)F)cc(C(F)(F)F)c1)N(CC1=CC(Cc2ccccc2)(NC(=O)C(Cl)(Cl)Cl)CC1)c1cccc(OCCN2CCOCC2)c1 (stereo not shown) [Compound 99]

same assay, conditions: @ 2.0 μM

inhibition at 2 µM	Structure (SMILES)
9%	O=C(Oc1cccc(CCN(CCN2CCOCC2)CC2=CC(Cc3ccccc3)(NC(=O)C(Cl)(Cl)Cl)CC2)c1)c1ccccc1 (stereo not shown) [Compound 85]
22%	COc1ccc(CCN(CCN2CCOCC2)CC2=CC(Cc3ccccc3)(NC(=O)C(Cl)(Cl)Cl)CC2)cc1OC(=O)c1ccccc1 (stereo not shown) [Compound 95]

Structure (SMILES)	inhibition at 2 µM
CN(C)CCSc1ccc(N(CC2=CC(Cc3ccccc3)(NC(=O)C(Cl)(Cl)Cl)CC2)C(=O)c2ccccc2)cc1 (stereo not shown) [Compound 86]	49%

same assay, conditions: @ 5.0 μM

inhibition at 5 µM	Structure (SMILES)
26%	COc1ccc(NC(=O)N(CC2=CC(Cc3ccccc3)(NC(=O)C(Cl)(Cl)Cl)CC2)c2cccc(OCCN3CCOCC3)c2)cc1 (stereo not shown) [Compound 89]

same assay, conditions: @ 10 μM

Structure (SMILES)	inhibition at 10 µM
O=C(Nc1ccccc1)N(CC1=CC(Cc2ccccc2)(NC(=O)C(Cl)(Cl)Cl)CC1)c1cccc(SCCN2CCOCC2)c1 (stereo not shown) [Compound 22, 3-Benzyl-3-trichloroacetylamino-1-(N-phenylaminocarbonyl)-N-[(3-(2-morpholinoethyl)phenyl)thio]methylcyclopentene]	83%
COc1ccc(N(CCN2CCOCC2)CC2=CC(Cc3ccccc3)(NC(=O)C(Cl)(Cl)Cl)CC2)cc1OCCN1CCOCC1 (stereo not shown) [Compound 40]	27%
O=C(c1ccccc1)N(CCc1cccc(OCCN2CCOCC2)c1)CC1=CC(Cc2ccccc2)(NC(=O)C(Cl)(Cl)Cl)CC1 (stereo not shown) [Compound 41]	82%
CCOC(=O)COc1cccc(N(CC2=CC(Cc3ccccc3)(NC(=O)C(Cl)(Cl)Cl)CC2)C(=O)c2ccccc2)c1 (stereo not shown) [Compound 46]	51%
O=C(NC1(Cc2ccccc2)C=C(CNc2ccc(O)cc2)CC1)C(Cl)(Cl)Cl (stereo not shown) [Compound 69]	11%
CCN(CC)CCN(CC1=CC(Cc2ccccc2)(NC(=O)C(Cl)(Cl)Cl)CC1)c1ccccc1OCCN1CCOCC1 (stereo not shown) [Compound 70]	80%
CCN(CC)CCN(CC1=CC(Cc2ccccc2)(NC(=O)C(Cl)(Cl)Cl)CC1)c1ccc(OCCN(C)C)cc1 (stereo not shown) [Compound 71]	85%
CCN(CC)CCN(CC1=CC(Cc2ccccc2)(NC(=O)C(Cl)(Cl)Cl)CC1)c1ccccc1O (stereo not shown) [Compound 73]	84%
CCN(CC)CCN(CC1=CC(Cc2ccccc2)(NC(=O)C(Cl)(Cl)Cl)CC1)c1ccc(O)cc1 (stereo not shown) [Compound 74]	81%
Nc1cccc(NCC2=CC(Cc3ccccc3)(NC(=O)C(Cl)(Cl)Cl)CC2)c1 (stereo not shown) [Compound 75]	41%
CCN(CC)CCN(CCc1ccc(O)cc1)CC1=CC(Cc2ccccc2)(NC(=O)C(Cl)(Cl)Cl)CC1 (stereo not shown) [Compound 76]	84%
CCN(CC)CCSc1cccc(N(CC2=CC(Cc3ccccc3)(NC(=O)C(Cl)(Cl)Cl)CC2)C(=O)c2ccccc2)c1 (stereo not shown) [Compound 79]	98%
O=C(c1ccc(F)cc1)N(CC1=CC(Cc2ccccc2)(NC(=O)C(Cl)(Cl)Cl)CC1)c1cccc(SCCN2CCOCC2)c1 (stereo not shown) [Compound 80]	79%
O=C(NC1(Cc2ccccc2)C=C(CNCCc2cccc(SCCN3CCOCC3)c2)CC1)C(Cl)(Cl)Cl (stereo not shown) [Compound 81]	81%
O=C(c1ccccc1)N(CC1=CC(Cc2ccccc2)(NC(=O)C(Cl)(Cl)Cl)CC1)c1cccc(SCCN2CCOCC2)c1 (stereo not shown) [Compound 82]	80%
CCN(CC)CCOc1cccc(CN(CC2=CC(Cc3ccccc3)(NC(=O)C(Cl)(Cl)Cl)CC2)C(=O)c2ccccc2)c1 (stereo not shown) [Compound 83]	100%
COc1ccc(NCC2=CC(Cc3ccccc3)(NC(=O)C(Cl)(Cl)Cl)CC2)cc1O (stereo not shown) [Compound 87]	32%
CCN(CC)CCN(CCc1cccc(OCCN2CCOCC2)c1)CC1=CC(Cc2ccccc2)(NC(=O)C(Cl)(Cl)Cl)CC1 (stereo not shown) [Compound 92]	95%
COc1ccc(N(CC2=CC(Cc3ccccc3)(NC(=O)C(Cl)(Cl)Cl)CC2)Cc2ccccc2)cc1OCCN1CCOCC1 (stereo not shown) [Compound 93]	62%
COc1ccc(NCC2=CC(Cc3ccccc3)(NC(=O)C(Cl)(Cl)Cl)CC2)cc1OCCN1CCOCC1 (stereo not shown) [Compound 94]	48%

Results, then the compound that gave them:

inhibition at 10 µM	Structure (SMILES)
37%	O=C(NC1(Cc2ccccc2)C=C(CNc2cccc(OCCN3CCOCC3)c2)CC1)C(Cl)(Cl)Cl (stereo not shown) [Compound 6]
70%	O=C(c1ccccc1)N(CC1=CC(Cc2ccccc2)(NC(=O)C(Cl)(Cl)Cl)CC1)Cc1cccc(OCCN2CCOCC2)c1 (stereo not shown) [Compound 32]
74%	COc1ccc(N(CC2=CC(Cc3ccccc3)(NC(=O)C(Cl)(Cl)Cl)CC2)C(=O)c2ccccc2)cc1OCCN1CCOCC1 (stereo not shown) [Compound 34]
59%	COc1ccc(C(=O)N(CC2=CC(Cc3ccccc3)(NC(=O)C(Cl)(Cl)Cl)CC2)c2cccc(SCCN3CCOCC3)c2)cc1 (stereo not shown) [Compound 84]
94%	O=C(NC1(Cc2ccccc2)C=C(CN(Cc2ccccc2)Cc2cccc(OCCN3CCOCC3)c2)CC1)C(Cl)(Cl)Cl (stereo not shown) [Compound 88]

same assay, conditions: rabbit colon, 125I motilin; read-out: IC50

IC50	Structure (SMILES)
260 nM	O=C(c1ccc(Cl)c(Cl)c1)N(CC1=CC(Cc2ccccc2)(NC(=O)C(Cl)(Cl)Cl)CC1)c1cccc(OCCN2CCOCC2)c1 (stereo not shown) [Compound 97]
1000 nM	O=C(c1c(F)c(F)c(F)c(F)c1F)N(CC1=CC(Cc2ccccc2)(NC(=O)C(Cl)(Cl)Cl)CC1)c1cccc(OCCN2CCOCC2)c1 (stereo not shown) [Compound 100]

same assay, conditions: rabbit colon, 125I motilin; read-out: IC50 (unit inferred)

IC50	Structure (SMILES)
900 nM	CCN(CC)CCN(CC1=CC(Cc2ccccc2)(NC(=O)C(Cl)(Cl)Cl)CC1)c1ccccc1OCCN1CCOCC1 (stereo not shown) [Compound 72]
800 nM	CCN(CC)CCOc1cccc(CN(CC2=CC(Cc3ccccc3)(NC(=O)C(Cl)(Cl)Cl)CC2)C2CCN(Cc3ccccc3)CC2)c1 (stereo not shown) [Compound 77]
1030 nM	CC(=O)N(CC1=CC(Cc2ccccc2)(NC(=O)C(Cl)(Cl)Cl)CC1)c1cccc(OCCN2CCOCC2)c1 (stereo not shown) [Compound 78]
